In article PMC9537541, “Synthesis and anticancer activity of new benzensulfonamides incorporating s-triazines as cyclic linkers for inhibition of carbonic anhydrase IX” (Scientific Reports, 2022):
Where a name gives a salt, the structure may show the parent alone.

Experiments:
hCA I = target: T1, hCA I (Homo sapiens, UniProt P00915); assay: stopped-flow CO2 hydrase assay, hCA I; assay type: biochemical; details: stopped flow technique, mean from 3 different assays
T1 construct: made in house
Procedure: (§1) Target compounds of series (A) and (B) were screened as inhibitors concerning the physiologically relevant hCAs; cytosolic isoforms (hCA I and II) in addition to the transmembrane tumor related isoforms (hCA IX and XII) via a stopped-flow assay of carbonic anhydrase catalyzed CO2 hydration. Acetazolamide (AAZ), CA I drug, was also incorporated in the assays as a standard drug. […] Four CA isoforms inhibition activity was measured by assaying CA catalyzed CO2 hydration via an applied photophysics stopped-flow instrument. PRISM 3 and the Cheng-prusoff equation were used to determine the inhibition constant by non-linear least square methods as reported, and represent the mean from three different determination at least. All tested carbonic anhydrase isoforms were recombinant proteins prepared in lab as described earlier,[57].

hCA II = target: T2, hCA II (Homo sapiens, UniProt P00918); assay: stopped-flow CO2 hydrase assay, hCA II; assay type: biochemical; details: stopped flow technique, mean from 3 different assays
T2 construct: made in house
Procedure: as §1

hCA IX = target: T3, hCA IX (Homo sapiens, UniProt Q16790); assay: stopped-flow CO2 hydrase assay, hCA IX; assay type: biochemical; details: for Selectivity index (SI) I/IX: hCA IX over off-target hCA I; for Selectivity index (SI) II/IX: hCA IX over off-target hCA II; for Ki: stopped flow technique, mean from 3 different assays
T3 construct: made in house
Procedure: as §1

hCA XII = target: T4, hCA XII (Homo sapiens, UniProt O43570); assay: stopped-flow CO2 hydrase assay, hCA XII; assay type: biochemical; details: for Selectivity index (SI) I/XII: hCA XII over off-target hCA I; for Selectivity index (SI) II/XII: hCA XII over off-target hCA II; for Ki: stopped flow technique, mean from 3 different assays
T4 construct: made in house
Procedure: as §1

CNS cancer (SNB-75) = assay: NCI single dose SRB screen, SNB-75; assay type: cell-based; details: Homo sapiens, SNB-75, 48 h, 10^−5 M single dose, read-out: GI% CNS cancer (SNB-75)
Procedure: (§2) Target compounds in series (A) and (B), were submitted to the National Cancer Institute (NCI) Developmental Therapeutic Program (www.dtp.nci.nih.gov), where they have been assessed, in vitro for their anticancer activity. Two series (A) and (B), were screened in a single dose (10 µM) versus full panel composed of 60 cancer cell lines, in accordance with protocol of drug evaluation branch, NCI, Bethesda. Sulforhodamine B (SRB) colorimetric assay was used to determine cell growth and viability,[40].
(§3) Protocol of Drug Evaluation Branch, NCI, Bethesda, was adopted in the antitumor assay. Assessment of cell growth and viability was carried out utilizing SRB assay and 48 h drug exposure protocol as previously reported,[40].

Renal cancer (UO-31) = assay: NCI single dose SRB screen, UO-31; assay type: cell-based; details: Homo sapiens, UO-31, 48 h, 10^−5 M single dose, read-out: GI% Renal cancer (UO-31)
Procedure: as §2, §3

[1] = tested on: Breast cancer (MDA-MB-468); assay: NCI single dose SRB screen, MDA-MB-468; assay type: cell-based; details: Homo sapiens, MDA-MB-468, 48 h, 10^−5 M single dose, 48 h, SRB; read-out: GI% Breast cancer (MDA-MB-468)
Procedure: as §2, §3

Leukemia (SR) = assay: NCI single dose SRB screen, SR; assay type: cell-based; details: 48 h, 10^−5 M single dose, read-out: GI% Leukemia (SR)
Procedure: as §2, §3

T1 sequence (P00915 whole entry): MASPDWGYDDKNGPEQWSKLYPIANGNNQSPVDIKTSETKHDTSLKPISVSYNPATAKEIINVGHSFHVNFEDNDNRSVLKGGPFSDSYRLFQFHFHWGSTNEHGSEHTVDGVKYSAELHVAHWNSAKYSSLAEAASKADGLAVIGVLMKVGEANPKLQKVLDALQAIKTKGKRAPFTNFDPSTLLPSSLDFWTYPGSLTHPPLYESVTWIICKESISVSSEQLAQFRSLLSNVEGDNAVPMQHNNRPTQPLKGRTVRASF
T4 sequence (O43570 25-354): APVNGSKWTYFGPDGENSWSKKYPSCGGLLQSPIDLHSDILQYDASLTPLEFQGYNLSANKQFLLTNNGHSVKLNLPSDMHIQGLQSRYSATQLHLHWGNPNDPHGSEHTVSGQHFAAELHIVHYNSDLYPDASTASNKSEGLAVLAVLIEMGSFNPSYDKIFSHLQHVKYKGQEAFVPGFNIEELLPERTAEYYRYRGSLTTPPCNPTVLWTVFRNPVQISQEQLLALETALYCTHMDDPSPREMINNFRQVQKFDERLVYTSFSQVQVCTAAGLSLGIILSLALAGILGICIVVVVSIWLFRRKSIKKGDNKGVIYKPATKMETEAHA

Row | Compound | Ki (hCA I) [nM] | Ki (hCA II) [nM] | Selectivity index (SI) I/IX (hCA IX) | Selectivity index (SI) II/IX (hCA IX) | Ki (hCA IX) [nM] | Selectivity index (SI) I/XII (hCA XII) | Selectivity index (SI) II/XII (hCA XII) | Ki (hCA XII) [nM] | inhibition at 10 µM (CNS cancer (SNB-75)) [%] | inhibition at 10 µM (Renal cancer (UO-31)) [%] | inhibition at 10 µM [1] [%] | inhibition at 10 µM (Leukemia (SR)) [%] | melting point [°C]
1 | COc1ccc(/C=C(\C#N)c2nc(N)nc(Nc3ccc(S(N)(=O)=O)cc3)n2)cc1 [Compound 12c, 4-({4-Amino-6-[(1E)-1-cyano-2-(4-methoxyphenyl)eth-1-en-1-yl]-1,3,5-triazin-2-yl}amino)benzene-1-sulfonamide] | 962 | 1940 | 0.7 | 1.4 | 1390 | 0.1 | 0.2 | 8680 | ≤ 10 | 14 | 22 | 16 | 281 to 283
2 | N#CCc1nc(N)nc(Nc2ccc(S(N)(=O)=O)cc2)n1 [Compound 10, 4-{[4-amino-6-(cyanomethyl)-1,3,5-triazin-2-yl]amino}benzene-1-sulfonamide] | 72.3 | 49.2 | 0.03 | 0.02 | 2450 | 0.01 | 0.006 | 7630 | 33 | ≤ 10 | ≤ 10 | ≤ 10 | 284 to 286
3 | CC1(C)N=C(N)N=C(N)N1c1ccc(S(=O)(=O)Nc2ccccn2)cc1.Cl [Compound 5b, 4-(4,6-Diamino-2,2-dimethyl-1,2-dihydro-1,3,5-triazin-1-yl)-N-(pyridin-2-yl)benzene-1-sulfonamide HCl] | > 10000 | > 10000 | – | – | > 10000 | – | – | > 10000 | 28 | 11 | ≤ 10 | ≤ 10 | 209 to 211
4 | NC1=NC2(CCCCC2)N(c2ccc(S(N)(=O)=O)cc2)C(N)=N1 (as salt: HCl) [Compound 6b, 4-(2,4-Diamino-1,3,5-triazaspiro[5.5]undeca-2,4-dien-1-yl)benzene-1-sulfonamide.HCl] | – | – | – | – | – | – | – | – | – | – | – | – | 257 to 259
5 | NC1=NC2(CCCC2)NC(Nc2ccc(S(N)(=O)=O)cc2)=N1 [Compound 8a, 4-({9-Amino-6,8,10-triazaspiro[4.5]deca-7,9-dien-7-yl}amino)benzene-1-sulfonamide] | 94.4 | 3620 | 0.1 | 2.5 | 1420 | 0.01 | 0.5 | 7420 | 14 | 17 | ≤ 10 | ≤ 10 | 264 to 266
6 | CC1CCC2(CC1)N=C(N)N=C(N)N2c1ccc(S(=O)(=O)Nc2nccs2)cc1 (stereo not shown) (as salt: HCl) [Compound 6j, 4-(2,4-Diamino-9-methyl-1,3,5-triazaspiro[5.5]undeca-2,4-dien-1-yl)-N-(1,3-thiazol-2-yl)benzene-1-sulfonamide.HCl] | – | – | – | – | – | – | – | – | – | – | – | – | 243 to 245
7 | CC1(C)N=C(N)N=C(N)N1c1ccc(S(=O)(=O)Nc2nccs2)cc1 (as salt: HCl) [Compound 5c, 4-(4,6-Diamino-2,2-dimethyl-1,2-dihydro-1,3,5-triazin-1-yl)-N-(thiazol-2-yl)benzene-1-sulfonamide.HCl] | – | – | – | – | – | – | – | – | – | – | – | – | 216 to 218
8 | NC1=NC2(CCCC2)N(c2ccc(S(=O)(=O)Nc3nccs3)cc2)C(N)=N1 (as salt: HCl) [Compound 6h, 4-{7,9-Diamino-6,8,10-triazaspiro[4.5]deca-7,9-dien-6-yl}-N-(1,3-thiazol-2-yl)benzene-1-sulfonamide.HCl] | – | – | – | – | – | – | – | – | – | – | – | – | 216 to 218
